Measured values: patent publication US20260176320A1, “MODULATORS OF G-PROTEIN COUPLED RECEPTORS” (priority 2018, published 2026)
Where two headings read alike, the source gives them in different places. Square brackets hold non-standard residues; d marks the D form. Peptide text beside a SMILES is read from it. * marks the point of attachment. X1 = O=C(CSCC(=O)*)NCCN1C(=O)c2ccccc2C1=O; Aib = CC(C)(N)C(=O)O

How the values were obtained:
[1] = molecular target: T1, GIP-R (Homo sapiens, UniProt P48546); assay: HitHunter cAMP assay (GIP-R); type: cell-based; conditions: cAMP; for Emax: read-out: (Emax) GIP-R
T1 sequence (P48546 22-466): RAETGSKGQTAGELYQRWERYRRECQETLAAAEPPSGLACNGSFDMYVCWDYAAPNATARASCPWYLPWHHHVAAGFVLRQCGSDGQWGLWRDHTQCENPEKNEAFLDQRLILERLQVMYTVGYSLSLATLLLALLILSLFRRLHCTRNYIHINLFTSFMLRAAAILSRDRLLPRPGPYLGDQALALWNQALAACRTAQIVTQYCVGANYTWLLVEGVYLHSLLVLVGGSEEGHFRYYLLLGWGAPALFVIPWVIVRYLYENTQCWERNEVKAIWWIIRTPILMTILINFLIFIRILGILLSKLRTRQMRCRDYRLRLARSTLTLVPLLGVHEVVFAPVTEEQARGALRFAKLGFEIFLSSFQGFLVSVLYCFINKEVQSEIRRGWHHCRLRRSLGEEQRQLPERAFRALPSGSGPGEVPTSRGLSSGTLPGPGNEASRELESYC
Outline: (§1)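 Agonist stimulation lasts 30 min at room temperature on 10,000 cells per well, with phosphodiesterase blocked by 625 μM IBMX. Accumulated cAMP is quantified by competitive antibody luminescence after overnight development.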

[2] = molecular target: GLP-1R (Homo sapiens, UniProt P43220); assay: HitHunter cAMP assay (GLP-1R); type: cell-based; conditions: cAMP; for Emax: read-out: (Emax) GLP-1R
Sequence of GLP-1R (P43220 24-463): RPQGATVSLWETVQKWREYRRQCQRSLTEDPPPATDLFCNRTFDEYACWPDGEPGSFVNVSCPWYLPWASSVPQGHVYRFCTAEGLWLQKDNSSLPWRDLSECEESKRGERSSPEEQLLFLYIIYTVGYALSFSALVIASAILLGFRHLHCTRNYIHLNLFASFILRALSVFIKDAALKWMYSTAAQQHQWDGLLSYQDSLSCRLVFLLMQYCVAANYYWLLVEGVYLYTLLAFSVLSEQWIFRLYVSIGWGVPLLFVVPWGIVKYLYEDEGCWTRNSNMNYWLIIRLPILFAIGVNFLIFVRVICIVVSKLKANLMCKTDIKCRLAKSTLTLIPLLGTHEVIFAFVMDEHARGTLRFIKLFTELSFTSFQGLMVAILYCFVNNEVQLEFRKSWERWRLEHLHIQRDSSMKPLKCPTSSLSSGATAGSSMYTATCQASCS
Outline: as §1

[3] = Table 3, read-out: EC50 GIP-R/nM
[4] = Table 3A, read-out: EC50 GIP-R/nM
[5] = Table 3, read-out: EC50 GLP-1R/nM
[6] = Table 3A, read-out: EC50 GLP-1R/nM

Compound: CC[C@H](C)[C@H](NC(=O)[C@H](CO)NC(=O)[C@H](Cc1ccc(O)cc1)NC(=O)[C@H](CC(=O)O)NC(=O)[C@H](CO)NC(=O)[C@@H](NC(=O)[C@H](Cc1ccccc1)NC(=O)[C@@H](NC(=O)CNC(=O)[C@H](CCC(=O)O)NC(=O)CC(=O)NCCN1C(=O)c2ccc(C)cc2C1=O)[C@@H](C)O)[C@@H](C)O)C(=O)N[C@@H](Cc1ccc(O)cc1)C(=O)N[C@@H](CC(C)C)C(=O)N[C@@H](CC(=O)O)C(=O)N[C@@H](CCCCN)C(=O)N[C@@H](CCC(N)=O)C(=O)N[C@@H](C)C(=O)N[C@@H](C)C(=O)NC(C)(C)C(=O)N[C@@H](CCC(=O)O)C(=O)N[C@@H](Cc1ccccc1)C(=O)N[C@H](C(=O)N[C@@H](CC(N)=O)C(=O)N[C@@H](Cc1c[nH]c2ccccc12)C(=O)N[C@@H](CC(C)C)C(=O)N[C@@H](CC(C)C)C(=O)N[C@@H](C)C(=O)NCC(=O)NCC(=O)N1CCC[C@H]1C(=O)N[C@@H](CO)C(=O)N[C@@H](CO)C(=O)NCC(=O)N[C@@H](C)C(=O)N1CCC[C@H]1C(=O)N1CCC[C@H]1C(=O)N1CCC[C@H]1C(=O)N[C@@H](CO)C(=O)N[C@@H](CCCCN)C(N)=O)C(C)C [Compound 126]
- EC50 ([1]; EC50 GIP-R/nM, Table 3): 10 to 100 nM
- EC50 ([1]; EC50 GIP-R/nM, Table 3A): 10 to 100 nM
- Emax ([1]; Table 3): 42 to 51%
- Emax ([1]; Table 3A): 42 to 51%
- EC50 ([2]; EC50 GLP-1R/nM, Table 3): 10 to 100 nM
- EC50 ([2]; EC50 GLP-1R/nM, Table 3A): 10 to 100 nM
- Emax ([2]; Table 3): 84%
- Emax ([2]; Table 3A): 84%

Compound: CC[C@H](C)[C@H](NC(=O)[C@H](CO)NC(=O)[C@H](Cc1ccc(O)cc1)NC(=O)[C@H](CC(=O)O)NC(=O)[C@H](CO)NC(=O)[C@@H](NC(=O)[C@H](Cc1ccccc1)NC(=O)[C@@H](NC(=O)CNC(=O)[C@H](CCC(=O)O)NC(=O)C(C)(C)C(=O)NCCN1C(=O)c2ccc(C)cc2C1=O)[C@@H](C)O)[C@@H](C)O)C(=O)N[C@@H](Cc1ccc(O)cc1)C(=O)N[C@@H](CC(C)C)C(=O)N[C@@H](CC(=O)O)C(=O)N[C@@H](CCCCN)C(=O)N[C@@H](CCC(N)=O)C(=O)N[C@@H](C)C(=O)N[C@@H](C)C(=O)NC(C)(C)C(=O)N[C@@H](CCC(=O)O)C(=O)N[C@@H](Cc1ccccc1)C(=O)N[C@H](C(=O)N[C@@H](CC(N)=O)C(=O)N[C@@H](Cc1c[nH]c2ccccc12)C(=O)N[C@@H](CC(C)C)C(=O)N[C@@H](CC(C)C)C(=O)N[C@@H](C)C(=O)NCC(=O)NCC(=O)N1CCC[C@H]1C(=O)N[C@@H](CO)C(=O)N[C@@H](CO)C(=O)NCC(=O)N[C@@H](C)C(=O)N1CCC[C@H]1C(=O)N1CCC[C@H]1C(=O)N1CCC[C@H]1C(=O)N[C@@H](CO)C(=O)N[C@@H](CCCCN)C(N)=O)C(C)C [Compound 127]
- EC50 ([1]; EC50 GIP-R/nM, Table 3): 1 to 10 nM
- EC50 ([1]; EC50 GIP-R/nM, Table 3A): 1 to 10 nM
- Emax ([1]; Table 3): 98 to 102%
- Emax ([1]; Table 3A): 98 to 102%
- EC50 ([2]; EC50 GLP-1R/nM, Table 3): 1 to 10 nM
- EC50 ([2]; EC50 GLP-1R/nM, Table 3A): 1 to 10 nM
- Emax ([2]; Table 3): 95 to 107%
- Emax ([2]; Table 3A): 95 to 107%

Compound: CC[C@H](C)[C@H](NC(=O)[C@H](CO)NC(=O)[C@H](Cc1ccc(O)cc1)NC(=O)[C@H](CC(=O)O)NC(=O)[C@H](CO)NC(=O)[C@@H](NC(=O)[C@H](Cc1ccccc1)NC(=O)[C@@H](NC(=O)CNC(=O)[C@H](CCC(=O)O)NC(=O)C(C)(C)C(=O)O)[C@@H](C)O)[C@@H](C)O)C(=O)N[C@@H](Cc1ccc(O)cc1)C(=O)N[C@@H](CC(C)C)C(=O)N[C@@H](CC(=O)O)C(=O)N[C@@H](CCCCN)C(=O)N[C@@H](CCC(N)=O)C(=O)N[C@@H](C)C(=O)N[C@@H](C)C(=O)NC(C)(C)C(=O)N[C@@H](CCC(=O)O)C(=O)N[C@@H](Cc1ccccc1)C(=O)N[C@H](C(=O)N[C@@H](CC(N)=O)C(=O)N[C@@H](Cc1c[nH]c2ccccc12)C(=O)N[C@@H](CC(C)C)C(=O)N[C@@H](CC(C)C)C(=O)N[C@@H](C)C(=O)NCC(=O)NCC(=O)N1CCC[C@H]1C(=O)N[C@@H](CO)C(=O)N[C@@H](CO)C(=O)NCC(=O)N[C@@H](C)C(=O)N1CCC[C@H]1C(=O)N1CCC[C@H]1C(=O)N1CCC[C@H]1C(=O)N[C@@H](CO)C(=O)N[C@@H](CCCCN)C(N)=O)C(C)C [Compound 131]
- Emax ([1]; Table 3): 3.2%
- EC50 [1, 3]: > 1000 nM
- EC50 [1, 4]: > 1000 nM
- Emax ([2]; Table 3): 95%
- EC50 [2, 5]: 1 to 10 nM
- Emax ([2]; Table 3A): 95%
- EC50 [2, 6]: 1 to 10 nM

Compound: CC[C@H](C)[C@H](NC(=O)[C@H](CO)NC(=O)[C@H](Cc1ccc(O)cc1)NC(=O)[C@H](CC(=O)O)NC(=O)[C@H](CO)NC(=O)[C@@H](NC(=O)[C@H](Cc1ccccc1)NC(=O)[C@@H](NC(=O)CNC(=O)[C@H](CCC(=O)O)NC(=O)CSCC(=O)NCCN1C(=O)c2ccccc2C1=O)[C@@H](C)O)[C@@H](C)O)C(=O)N[C@@H](Cc1ccc(O)cc1)C(=O)N[C@@H](CC(C)C)C(=O)N[C@@H](CC(=O)O)C(=O)N[C@@H](CCCCN)C(=O)N[C@@H](CCC(N)=O)C(=O)N[C@@H](C)C(=O)N[C@@H](C)C(=O)NC(C)(C)C(=O)N[C@@H](CCC(=O)O)C(=O)N[C@@H](Cc1ccccc1)C(=O)N[C@H](C(=O)N[C@@H](CCC(=O)O)C(=O)N[C@@H](Cc1c[nH]c2ccccc12)C(=O)N[C@@H](CC(C)C)C(=O)N[C@@H](CC(C)C)C(=O)N[C@@H](C)C(=O)NCC(=O)NCC(=O)N1CCC[C@H]1C(=O)N[C@@H](CO)C(=O)N[C@@H](CO)C(=O)NCC(=O)N[C@@H](C)C(=O)N1CCC[C@H]1C(=O)N1CCC[C@H]1C(=O)N1CCC[C@H]1C(=O)N[C@@H](CO)C(=O)N[C@@H](CCCCN)C(N)=O)C(C)C [Compound 149] (X1-EGTFTSDYSIYLDKQAA[Aib]EFVEWLLAGGPSSGAPPPSK-NH2)
- EC50 ([1]; EC50 GIP-R/nM, Table 3): < 0.1 nM
- EC50 ([1]; EC50 GIP-R/nM, Table 3A): < 0.1 nM
- Emax ([1]; Table 3): 113%
- Emax ([1]; Table 3A): 113%
- EC50 ([2]; EC50 GLP-1R/nM, Table 3): 1 to 10 nM
- EC50 ([2]; EC50 GLP-1R/nM, Table 3A): 1 to 10 nM
- Emax ([2]; Table 3): 86 to 92%
- Emax ([2]; Table 3A): 86 to 92%

Compound: CC[C@H](C)[C@H](NC(=O)[C@H](CO)NC(=O)[C@H](Cc1ccc(O)cc1)NC(=O)[C@H](CC(=O)O)NC(=O)[C@H](CO)NC(=O)[C@@H](NC(=O)[C@H](Cc1ccccc1)NC(=O)[C@@H](NC(=O)CNC(=O)[C@H](CCC(=O)O)NC(=O)CSCC(=O)NCCN1C(=O)c2ccccc2C1=O)[C@@H](C)O)[C@@H](C)O)C(=O)N[C@@H](Cc1ccc(O)cc1)C(=O)N[C@@H](CC(C)C)C(=O)N[C@@H](CC(=O)O)C(=O)N[C@@H](CCC(=O)O)C(=O)N[C@@H](CCC(N)=O)C(=O)N[C@@H](C)C(=O)N[C@@H](C)C(=O)NC(C)(C)C(=O)N[C@@H](CCC(=O)O)C(=O)N[C@@H](Cc1ccccc1)C(=O)N[C@H](C(=O)N[C@@H](CC(N)=O)C(=O)N[C@@H](Cc1c[nH]c2ccccc12)C(=O)N[C@@H](CC(C)C)C(=O)N[C@@H](CC(C)C)C(=O)N[C@@H](C)C(=O)NCC(=O)NCC(=O)N1CCC[C@H]1C(=O)N[C@@H](CO)C(=O)N[C@@H](CO)C(=O)NCC(=O)N[C@@H](C)C(=O)N1CCC[C@H]1C(=O)N1CCC[C@H]1C(=O)N1CCC[C@H]1C(=O)N[C@@H](CO)C(=O)N[C@@H](CCCCN)C(N)=O)C(C)C [Compound 150] (X1-EGTFTSDYSIYLDEQAA[Aib]EFVNWLLAGGPSSGAPPPSK-NH2)
- Emax ([1]; Table 3A): 118 to 130%
- EC50 ([1]; read-out: EC50 GIP-R/nM, Table 3): < 1 nM
- EC50 ([1]; read-out: EC50 GIP-R/nM, Table 3A): < 1 nM
- EC50 ([2]; EC50 GLP-1R/nM, Table 3): 1 to 10 nM
- EC50 ([2]; EC50 GLP-1R/nM, Table 3A): 1 to 10 nM
- Emax ([2]; Table 3): 95 to 113%
- Emax ([2]; Table 3A): 95 to 113%

Compound: CC[C@H](C)[C@H](NC(=O)[C@H](CO)NC(=O)[C@H](Cc1ccc(O)cc1)NC(=O)[C@H](CC(=O)O)NC(=O)[C@H](CO)NC(=O)[C@@H](NC(=O)[C@H](Cc1ccccc1)NC(=O)[C@@H](NC(=O)CNC(=O)[C@H](CCC(=O)O)NC(=O)CS(=O)(=O)CC(=O)NCCN1C(=O)CSC1=O)[C@@H](C)O)[C@@H](C)O)C(=O)N[C@@H](Cc1ccc(O)cc1)C(=O)N[C@@H](CC(C)C)C(=O)N[C@@H](CC(=O)O)C(=O)N[C@@H](CCCCN)C(=O)N[C@@H](CCC(N)=O)C(=O)N[C@@H](C)C(=O)N[C@@H](C)C(=O)NC(C)(C)C(=O)N[C@@H](CCC(=O)O)C(=O)N[C@@H](Cc1ccccc1)C(=O)N[C@H](C(=O)N[C@@H](CC(N)=O)C(=O)N[C@@H](Cc1c[nH]c2ccccc12)C(=O)N[C@@H](CC(C)C)C(=O)N[C@@H](CC(C)C)C(=O)N[C@@H](C)C(=O)NCC(=O)NCC(=O)N1CCC[C@H]1C(=O)N[C@@H](CO)C(=O)N[C@@H](CO)C(=O)NCC(=O)N[C@@H](C)C(=O)N1CCC[C@H]1C(=O)N1CCC[C@H]1C(=O)N1CCC[C@H]1C(=O)N[C@@H](CO)C(=O)N[C@@H](CCCCN)C(N)=O)C(C)C [Compound 168]
- EC50 [1, 3]: > 1000 nM
- EC50 [1, 4]: > 1000 nM
- Emax at 1 µM ([1]; read-out: (Emax) GIP-R at 1 μM, Table 3, at 1 μM): 6 to 14%
- Emax ([2]; Table 3): 92%
- EC50 [2, 5]: 1 to 10 nM
- Emax ([2]; Table 3A): 92%
- EC50 [2, 6]: 1 to 10 nM
